This assay deals with Recombinant full length human PFKFB3 (Homo sapiens, UniProt Q16875). Briefly: PFKFB3 kinase activity assay (ADP production, ADP-Glo). A general note: ADP-Glo turns the ADP formed in a reaction into a luminescent signal.
Recombinant full length human PFKFB3, sequence (Q16875 whole entry): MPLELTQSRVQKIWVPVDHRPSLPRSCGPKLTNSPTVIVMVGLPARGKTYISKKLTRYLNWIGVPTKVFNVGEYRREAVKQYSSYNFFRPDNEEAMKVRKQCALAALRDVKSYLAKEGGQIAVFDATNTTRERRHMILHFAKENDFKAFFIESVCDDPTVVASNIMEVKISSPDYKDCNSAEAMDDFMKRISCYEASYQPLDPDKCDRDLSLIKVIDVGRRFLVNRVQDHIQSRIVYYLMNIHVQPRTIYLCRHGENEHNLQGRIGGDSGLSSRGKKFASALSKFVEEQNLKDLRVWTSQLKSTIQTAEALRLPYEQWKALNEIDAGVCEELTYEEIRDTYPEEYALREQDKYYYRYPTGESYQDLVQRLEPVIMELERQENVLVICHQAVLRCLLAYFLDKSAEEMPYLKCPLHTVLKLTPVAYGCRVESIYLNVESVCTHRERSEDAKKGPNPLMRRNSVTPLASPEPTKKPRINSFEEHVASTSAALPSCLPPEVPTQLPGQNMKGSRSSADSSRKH
Consider `COC(=O)c1ccc(-c2ccccc2)cc1N1Cc2ccc(C(=O)O)cc2C1=O` [Compound 102, 2-(4-Methoxycarbonylbiphenyl-3-yl)-3-oxo-2,3-dihydro-1H-isoindole-5-carboxylic Acid], for which the half-inhibitory concentration (IC50) (usually the concentration at which inhibition is half-maximal) was less than 20 µM.

On to `COC(=O)c1ccc(-c2ccccc2)cc1N1Cc2ccc(C(=O)NS(C)(=O)=O)cc2C1=O` [Compound 103, 3-(6-Methanesulfonylaminocarbonyl-1-oxo-1,3-dihydroisoindol-2-yl)biphenyl-4-carboxylic acid methyl ester], for which the IC50 is less than 20 µM.

As for `CS(=O)(=O)NC(=O)c1ccc2c(c1)C(=O)N(c1cc(-c3ccccc3)ccc1C(=O)O)C2` [Compound 104, 3-(6-Methanesulfonylaminocarbonyl-1-oxo-1,3-dihydroisoindol-2-yl)biphenyl-4-carboxylic Acid], the IC50 is less than 0.5 µM.

As for `COC(=O)c1ccc(-c2ccc(F)c(F)c2)cc1N1Cc2ccc(C(=O)NS(C)(=O)=O)cc2C1=O` [Compound 105, 3′,4′-Difluoro-3-(6-methanesulfonylaminocarbonyl-1-oxo-1,3-dihydroisoindol-2-yl)biphenyl-4-carboxylic acid methyl ester], the IC50 is less than 20 µM.

Consider `CS(=O)(=O)NC(=O)c1ccc2c(c1)C(=O)N(c1cc(-c3ccc(F)c(F)c3)ccc1C(=O)O)C2` [Compound 106, 3′,4′-Difluoro-3-(6-methanesulfonylaminocarbonyl-1-oxo-1,3-dihydroisoindol-2-yl)biphenyl-4-carboxylic Acid], for which the half-inhibitory concentration (IC50) was in the range of 2 to 5 µM.

For the molecule `CS(=O)(=O)NC(=O)c1ccc2c(c1)C(=O)N(c1cc(-c3ccc(F)c(F)c3)ccc1C(N)=O)C2` [Compound 107, 3′,4′-Difluoro-3-(6-methanesulfonylaminocarbonyl-1-oxo-1,3-dihydroisoindol-2-yl)biphenyl-4-carboxylic acid amide], the IC50 was less than 20 µM.

For `CN(C)CCOC(=O)c1ccc(-c2ccc(F)c(F)c2)cc1N1Cc2ccc(C(=O)NS(C)(=O)=O)cc2C1=O` [Compound 108, 3′,4′-Difluoro-3-(6-methanesulfonylaminocarbonyl-1-oxo-1,3-dihydroisoindol-2-yl)biphenyl-4-carboxylic acid 2-dimethylamino-ethyl ester], the IC50 was less than 20 µM.

For `CS(=O)(=O)NC(=O)c1ccc2c(c1)C(=O)N(c1cc(-c3ccc(F)c(F)c3)ccc1C(=O)OCCN1CCCC1)C2` [Compound 109, 3′,4′-Difluoro-3-(6-methanesulfonylaminocarbonyl-1-oxo-1,3-dihydroisoindol-2-yl)biphenyl-4-carboxylic acid 2-pyrrolidin-1-yl-ethyl ester], the half-maximal inhibitory concentration (IC50) was less than 20 µM.

As for `COC(=O)c1ccc(-c2ccc(F)c(F)c2)cc1N1Cc2ccc(-c3c[nH]nn3)cc2C1=O` [Compound 110, 3′,4′-Difluoro-3-[1-oxo-6-(1H-[1,2,3]triazol-4-yl)-1,3-dihydroisoindol-2-yl]biphenyl-4-carboxylic acid methyl ester], the concentration for half-maximal inhibition (IC50) is less than 20 µM.

As for `O=C(O)c1ccc(-c2ccc(F)c(F)c2)cc1N1Cc2ccc(-c3c[nH]nn3)cc2C1=O` [Compound 111, 3′,4′-Difluoro-3-[1-oxo-6-(1H-[1,2,3]triazol-4-yl)-1,3-dihydroisoindol-2-yl]biphenyl-4-carboxylic Acid], the IC50 is less than 0.5 µM.

Consider `CN(C)CCOC(=O)c1ccc(-c2ccc(F)c(F)c2)cc1N1Cc2ccc(-c3c[nH]nn3)cc2C1=O` [Compound 112, 3′,4′-Difluoro-3-[1-oxo-6-(1H-[1,2,3]triazol-4-yl)-1,3-dihydroisoindol-2-yl]biphenyl-4-carboxylic acid 2-dimethylamino-ethyl ester], for which the half-maximal inhibitory concentration (IC50) was less than 20 µM.

Regarding `NC(=O)c1ccc(-c2ccc(F)c(F)c2)cc1N1Cc2ccc(-c3c[nH]nn3)cc2C1=O` [Compound 113, 3′,4′-Difluoro-3-[1-oxo-6-(1H-[1,2,3]triazol-4-yl)-1,3-dihydroisoindol-2-yl]biphenyl-4-carboxylic acid amide], the IC50 is less than 20 µM.

As to `O=C(OCCN1CCCC1)c1ccc(-c2ccc(F)c(F)c2)cc1N1Cc2ccc(-c3c[nH]nn3)cc2C1=O` [Compound 115, 3′,4′-Difluoro-3-[1-oxo-6-(1H-[1,2,3]triazol-4-yl)-1,3-dihydroisoindol-2-yl]biphenyl-4-carboxylic acid 2-pyrrolidin-1-yl-ethyl ester], the concentration for half-maximal inhibition (IC50) is less than 20 µM.

For `Cc1oc(=O)oc1COC(=O)c1ccc(-c2ccc(F)c(F)c2)cc1N1Cc2ccc(-c3c[nH]nn3)cc2C1=O` [Compound 116, 3′,4′-Difluoro-3-[1-oxo-6-(1H-[1,2,3]triazol-4-yl)-1,3-dihydro-isoindol-2-yl]-biphenyl-4-carboxylic acid (5-methyl-2-oxo-[1,3]dioxol-4-yl)methyl ester], the concentration for half-maximal inhibition (IC50) fell in the range of 5 to 20 µM.

For the molecule `CC(C)(C)OC(=O)c1ccc(-c2ccc(F)c(F)c2)cc1N1Cc2ccc(-c3c[nH]nn3)cc2C1=O` [Compound 117, 3′,4′-Difluoro-3-[1-oxo-6-(1H-[1,2,3]triazol-4-yl)-1,3-dihydro-isoindol-2-yl]-biphenyl-4-carboxylic acid tert-butyl ester], the IC50 is less than 20 µM.

For the molecule `CC(C)OC(=O)c1ccc(-c2ccc(F)c(F)c2)cc1N1Cc2ccc(-c3c[nH]nn3)cc2C1=O` [Compound 118, 3′,4′-Difluoro-3-[1-oxo-6-(1H-[1,2,3]triazol-4-yl)-1,3-dihydro-isoindol-2-yl]-biphenyl-4-carboxylic acid isopropyl ester], the 50% inhibitory concentration (IC50) is less than 20 µM.

`NC(=O)c1ccc(-c2ccc(F)c(F)c2)cc1N1Cc2ccc(C(=O)O)cc2C1=O` [Compound 119, 2-(4-Carbamoyl-3′,4′-difluorobiphenyl-3-yl)-3-oxo-2,3-dihydro-1H-isoindole-5-carboxylic acid]: the IC50 was in the range of 5 to 20 µM.

Take `CN(C)CCOC(=O)c1ccc(-c2ccc(F)c(F)c2)cc1N1Cc2ccc(C(=O)O)cc2C1=O` [Compound 120, 2-[4-(2-Dimethylamino-ethoxycarbonyl)-3′,4′-difluorobiphenyl-3-yl]-3-oxo-2,3-dihydro-1H-isoindole-5-carboxylic Acid]: the IC50 lay in the range of 5 to 20 µM.

Turning to `COC(=O)c1ccc(-c2ccc(F)c(F)c2)cc1N1Cc2ccc(-n3cnnn3)cc2C1=O` [Compound 121, 3′,4′-Difluoro-3-(1-oxo-6-tetrazol-1-yl-1,3-dihydroisoindol-2-yl)biphenyl-4-carboxylic acid methyl ester], the IC50 is less than 20 µM.

Take `O=C(O)c1ccc(-c2ccc(F)c(F)c2)cc1N1Cc2ccc(-n3cnnn3)cc2C1=O` [Compound 122, 3′,4′-Difluoro-3-(1-oxo-6-tetrazol-1-yl-1,3-dihydroisoindol-2-yl)biphenyl-4-carboxylic Acid]: the IC50 was 0.5 to 2 µM.

For `CCCCOC(=O)c1ccc2c(c1)C(=O)N(c1cc(-c3ccc(F)c(F)c3)ccc1C(N)=O)C2` [Compound 123, 2-(4-Carbamoyl-3′,4′-difluorobiphenyl-3-yl)-3-oxo-2,3-dihydro-1H-isoindole-5-carboxylic acid butyl ester], the IC50 is less than 20 µM.

`CN(C)CCCOC(=O)c1ccc(-c2ccc(F)c(F)c2)cc1N1Cc2ccc(C(=O)NS(C)(=O)=O)cc2C1=O` [Compound 124, 3′,4′-Difluoro-3-(6-methanesulfonylaminocarbonyl-1-oxo-1,3-dihydro-isoindol-2-yl)-biphenyl-4-carboxylic acid 3-dimethylamino-propyl ester]: the half-maximal inhibitory concentration (IC50) is less than 20 µM.

These data come from US20230047816A1 (priority 2018, published 2023).
